Source: US20140163218A1, “NOVEL PHTHALOCYANINE DERIVATIVES FOR THERAPEUTIC USE” (MOLTENI THERAPEUTICS S.R.L., priority 2011, published 2014)
Marks after values point to notes of the source that are not given here.

What was measured:
[1] = Stability in water by HPLC (loss of titre and purity after 8 hours); format: physicochemical; settings: 1 mg/mL in DMSO diluted 1:10 with deionised water, HPLC at time 0 and after 8 hours; result in words
Experimental: Protocol: each sample is dissolved in DMSO at the concentration of 1 mg/mL and then diluted 1:10 with deionised water. The solution is analysed in HPLC at time 0 and after 8 hours and any loss of titre and/or of purity is recorded by the following method: Column: Luna C18 (2) 150*4.6 mm (5 μm);
elution in gradient of AcOH 0.1% in water (Eluent A) and methanol (Eluent B) with % B 10-100 in 20 min or 40-100 depending on the polarity of the injected compound; flow 1 mL/min; temperature: 25° C.; injection […]; detection at 686 nm, bw 20 nm.

Staphylococcus aureus = settings: 99.9% reduction; 5 min incubation; red light 600-700 nm, 50 mW/cm^2 for 10 min, 30 J/cm^2
Experimental: (§1) The bacterial and fungal cells (ATCC of Staphylococcus aureus, Escherichia coli and Pseudomonas aeruginosa strains for the bacteria, Candida albicans for the yeasts) are grown in a Tryptic Soy Broth (TSB) liquid medium at 37° C. for 16-20 hr (bacteria) and in Sabouraud Dextrose Broth (SDB) at 37° C. for 24 hr (yeasts) in an aerobic atmosphere.
(§2) The cells are collected for centrifugation (2000 g, 15 min.) and re-suspended in sterile PBS (pH=7.3±0.1).
(§3) Exposure of the microorganisms to the photosensitiser and to the light source is carried out in wells of sterile, polystyrene, Microtiter plates, in PBS containing the desired concentration of photosensitiser. The plate is left to incubate at room temperature, for 5 min for the bacteria and for 1 hr at 37° C. for the yeasts. For lighting with red visible light a halogen lamp is used, model PDT 1200 Waldmann (A=600-700 nm) at 50 mW/cm^2 for 10 min and the total dose of light consequently used in the assay is of 30 J/cm^2.
(§4) After illuminating the bacterial or fungal suspension, and suitable dilutions thereof in sterile PBS, they are inoculated on agar plates to determine the number of residual UFCs. The plates are incubated at 37° C. for 24 hours and the results are recorded at the end of this period.

Candida albicans = settings: 99.9% reduction; 1 hr incubation at 37° C.; red light 600-700 nm, 50 mW/cm^2 for 10 min, 30 J/cm^2
Experimental: as §1, §2, §3, §4

Escherichia coli = settings: 99.9% reduction; 5 min incubation; red light 600-700 nm, 50 mW/cm^2 for 10 min, 30 J/cm^2
Experimental: as §1, §2, §3, §4

Pseudomonas aeruginosa = settings: 99.9% reduction; 5 min incubation; red light 600-700 nm, 50 mW/cm^2 for 10 min, 30 J/cm^2
Experimental: as §1, §2, §3, §4

Row | Substance | Loss of purity (% area) [1] | Loss of titre (%) [1] | MBC, 3 log (μM) S. aureus (Staphylococcus aureus) [μM] | MFC, 3 log (μM) C. albicans (Candida albicans) | MBC, 3 log (μM) E. coli (Escherichia coli) [μM] | MBC, 3 log (μM) P. aeruginosa (Pseudomonas aeruginosa) [μM]
1 | {bis-[3-(N-methyl-piperidin-1-ium)propyl-dipropvlsilyloxy]}silicon(IV) phthalocyanine dichloride [Compound 4] | insignificant (of ≦ to 0.1% for the loss of purity) | insig- nificant | 0.03 | 3.13* μM | 6.25 | 50
2 | {bis-[3-(m-N,N,N-trimethylammoniumphenyloxy)propyl-dipropylsilyloxyl]}silicon(IV) phthalocyanine dichloride [Compound 5] | insignificant (of ≦ to 0.1% for the loss of purity) | insig- nificant | 0.1 | 50 μM | 25 | 25
3 | {bis-[bis-(3-N,N,N-trimethylammoniumpropyl)]propylsilyloxy}silicon(IV) phthalocyanine tetrachloride [Compound 2] | insignificant (of ≦ to 0.1% for the loss of purity) | insig- nificant | 0.25 | >50 μM | 6.25 | 6.25
4 | {bis-[bis-(p-N,N,N-trimethylammoniumphenyl)]propylsilyloxy}silicon(IV) phthalocyanine tetrachloride [Compound 3] | insignificant (of ≦ to 0.1% for the loss of purity) | insig- nificant | 0.05 | >50 μM | 3.13 | 1.56
5 | {bis-[bis-(p-N,N,N-trimethylammoniumphenyl)]-3-(N-methyl-piperidine-1-ium)propylsilyloxy}silicon(IV) phthalocyanine hexachloride [Compound 1] | insignificant (of ≦ to 0.1% for the loss of purity) | insig- nificant | 0.78 | 12.5 μM | 6.25 | 6.25
